# Test results as given in patent publication US20170216360A1, “METHODS AND COMPOSITIONS FOR IMPROVING HOMING OF CELLS INCLUDING MESENCHYMAL STEM CELLS” (SANOFI, priority 2014, published 2017).
# Structures can show the parent of a compound that is named as a salt.
# Experiments:
# [1] = system: MSC firm adhesion to ICAM-1-coated surface; assay: ICAM-1 firm adhesion assay under shear flow, with antibody blocking; type: cell-based, human
# Method: Cell adhesion experiments were performed using Bioflux1000 (FluxionBio), allowing accurate control over shear flow. A special 48-well plate was used, in which a microfluidic channel (350 μm×70 μm) connects each pair of adjacent wells (termed inlet and outlet wells). The plate was placed under vacuum and the channels were coated from the inlet with recombinant human E-selectin (5 μg/mL) or ICAM-1 (5 μg/mL) and incubated at 37° C. for 1 h. Prior to introducing the cells into the channel, a wash with PBS−/− from the outlet well was performed for 5 min. Compound-pretreated MSCs were introduced into the channel, followed by attachment period of 2 minutes (no flow applied during the attachment period). Attached cells were then subjected to increasing shear flow, ranging from 0.25 dynes/cm^2 for up to 10 dynes/cm^2. Images were acquired using the Montage software and cell adhesion to the coated channels following subjection to shear flow was examined. See also disclosure elsewhere herein.
# Pre-confluent MSCs were incubated for 24 hours with the indicated small molecules (3 μM). MSCs were than detached, washed and incubated for 30 minutes with an antibody reagent. The following antibodies are used: anti-human CD11a (clone: HI111), anti-human CD90 (clone: MAB2067), mouse anti-human CD11a (clone: TS1/22), and mouse IgG1 isotype control. Cells were then introduced into the channel and given 2 minutes to adhere before being subjected to increasing shear flow for a firm adhesion assay on a microfluidic channel coated with E-selectin or ICAM-1.
# MSC secretome = assay: Secretomic analysis of small molecule-primed MSCs (Bio-plex immunoassays); type: cell-based, human
smiles,measurement,setting,value
"Cn1cc(C2=C(c3c4n(c5ccccc35)CCC(CN)C4)C(=O)NC2=O)c2ccccc21 (stereo not drawn) [Compound 1929, 3-(8-aminomethyl-6,7,8,9-tetrahydro-pyrido[1,2-a]indol-10-yl)-4-(1-methyl-1H-indol-3-yl)-pyrrole-2,5-dione hydrochloride]",CD11a+ part of the induced ICAM-1 adhering population,[1]; 3 μM for 24 h,approximately 7%
same,Increase in MSC firm adhesion to ICAM-1-coated substrate compared to vehicle-treated MSCs,[1]; 3 μM for 24 h,> 3 fold
same,"New MSC sub-population with induced ICAM-1 firm adhesion, share of entire population",[1]; 3 μM for 24 h,68%
same,Part expressing other ICAM-1-binding domains,[1]; 3 μM for 24 h,61%
same,Adhered cells on ICAM-1-coated surface before CD11a blocking,[1]; pretreated MSC,90%
same,Adhered cells on ICAM-1-coated surface following CD11a blocking,"[1]; pretreated MSC, CD11a blocking Ab",50%
same,"Number of analytes with statistically significant changes, out of 48 secreted factors",MSC secretome,3
same,Mean of [IFN-g],"MSC secretome; 0.3 μM, 24 h, MSC donor 318006",11.0 pg/mL
same,Mean of [IL-1ra],"MSC secretome; 0.3 μM, 24 h, MSC donor 318006",16.5 pg/mL
same,Mean of [IL-6],"MSC secretome; 0.3 μM, 24 h, MSC donor 318006",451.3 pg/mL
same,Mean of [IL-8],"MSC secretome; 0.3 μM, 24 h, MSC donor 318006",26.9 pg/mL
same,Mean of [IL-12p70],"MSC secretome; 0.3 μM, 24 h, MSC donor 318006",13.3 pg/mL
same,Mean of [LIF],"MSC secretome; 0.3 μM, 24 h, MSC donor 318006",14.2 pg/mL
same,Mean of [MCP-1],"MSC secretome; 0.3 μM, 24 h, MSC donor 318006",26.4 pg/mL
same,Mean of [MIF],"MSC secretome; 0.3 μM, 24 h, MSC donor 318006",54.9 pg/mL
same,Mean of [VEGF],"MSC secretome; 0.3 μM, 24 h, MSC donor 318006",547.2 pg/mL
same,Mean of [IL-1ra],"MSC secretome; 3 μM, 24 h, MSC donor 318006",22.6 pg/mL
same,Mean of [LIF],"MSC secretome; 3 μM, 24 h, MSC donor 318006",10.8 pg/mL
same,Mean of [MIF],"MSC secretome; 3 μM, 24 h, MSC donor 318006",69.4 pg/mL
same,IL-8 level secreted by MSC,MSC secretome; 3 micromolar for 24 hours,downregulation
same,MCP-1 level secreted by MSC,MSC secretome; 3 micromolar for 24 hours,downregulation
same,SDF-1alpha level secreted by MSC,MSC secretome; 3 micromolar for 24 hours,upregulation
same,Fold change of analyte IL-6 upon pretreatment (vs. vehicle control),MSC secretome; MSC secretome,0.34 +/− 0.09
same,Fold change of analyte MCP-1 upon pretreatment (vs. vehicle control),MSC secretome; MSC secretome,0.54 +/− 0.09
